In ChEMBL document CHEMBL1201862, “PubChem BioAssay data set” (2004):
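Cultured in 96-well plates, cells were exposed to test compound for 48 hours across five concentrations. The concentration for 50% growth inhibition is given as GI50.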 Calls of active or inactive are those of the source. No stated cut-off is given here; in the data, active = GI50 up to about 1.1 µM and inactive = higher.

How the values were obtained:
Experiment in all cases: growth of human tumour cells (NCI), 48 h
A498 = system: A498
HOP-62 = system: HOP-62
DMS-114 = system: DMS-114
SR = system: SR
SK-MEL-5 = system: SK-MEL-5
M19-MEL = system: M19-MEL
ACHN = system: ACHN
MCF7 = system: MCF7
CAKI-1 = system: CAKI-1
UACC-62 = system: UACC-62
K562 = system: K562
HCC 2998 = system: HCC 2998
MDA-MB-435 = system: MDA-MB-435
SF-295 = system: SF-295
UO-31 = system: UO-31
Hs-578T = system: Hs-578T
NCI/ADR-RES = system: NCI/ADR-RES
SF-268 = system: SF-268
786-0 = system: 786-0
HT-29 = system: HT-29
RXF 393 = system: RXF 393
M14 = system: M14
COLO 205 = system: COLO 205
NCI-H23 = system: NCI-H23
SN12C = system: SN12C
RPMI-8226 = system: RPMI-8226
SK-MEL-2 = system: SK-MEL-2
SF-539 = system: SF-539
CCRF-CEM = system: CCRF-CEM
OVCAR-8 = system: OVCAR-8
SK-MEL-28 = system: SK-MEL-28
SW-620 = system: SW-620
EKVX = system: EKVX
OVCAR-5 = system: OVCAR-5
KM12 = system: KM12
XF498 = system: XF498
T47D = system: T47D
KM-20L2 = system: KM-20L2
SNB-75 = system: SNB-75
DMS-273 = system: DMS-273
NCI-H460 = system: NCI-H460
NCI-H522 = system: NCI-H522
HCT-116 = system: HCT-116
NCI-H226 = system: NCI-H226
Malme-3M = system: Malme-3M
SNB-19 = system: SNB-19
HCT-15 = system: HCT-15
HOP-18 = system: HOP-18
MDA-N = system: MDA-N
A549 = system: A549
LXFL 529 = system: LXFL 529
HL-60 = system: HL-60
DU-145 = system: DU-145
U-251 = system: U-251
IGROV-1 = system: IGROV-1
OVCAR-4 = system: OVCAR-4
SNB-78 = system: SNB-78
PC-3 = system: PC-3
DLD-1 = system: DLD-1
SK-OV-3 = system: SK-OV-3
TK-10 = system: TK-10
RXF 631 = system: RXF 631
MDA-MB-231 = system: MDA-MB-231
OVCAR-3 = system: OVCAR-3
HOP-92 = system: HOP-92
LOX IMVI = system: LOX IMVI
UACC-257 = system: UACC-257
MOLT-4 = system: MOLT-4

## Cc1ccc2oc(=O)c3c(O)c4cccc(OC5OC(C)C6O[C@@H](c7ccccc7)OC6C5OC5OC(C)C(O)C(O)C5O)c4c4oc(=O)c1c2c34 (some centres undefined)
A498
  GI50: 27.4 nM (active)
HOP-62
  GI50: 45.2 nM (active)
DMS-114
  GI50: 262 nM (active)
SR
  GI50: < 11 nM (active)
SK-MEL-5
  GI50: 50.9 nM (active)
M19-MEL
  GI50: 110 nM (active)
ACHN
  GI50: 27 nM (active)
MCF7
  GI50: 32.4 nM (active)
CAKI-1
  GI50: 138 nM (active)
UACC-62
  GI50: 44.9 nM (active)
K562
  GI50: 40.4 nM (active)
HCC 2998
  GI50: 44.2 nM (active)
MDA-MB-435
  GI50: 270 nM (active)
SF-295
  GI50: 30.3 nM (active)
UO-31
  GI50: 1140 nM (inactive)
Hs-578T
  GI50: 119 nM (active)
NCI/ADR-RES
  GI50: 3660 nM (inactive)
SF-268
  GI50: 54.5 nM (active)
786-0
  GI50: 38.9 nM (active)
HT-29
  GI50: 47.2 nM (active)
RXF 393
  GI50: 187 nM (active)
M14
  GI50: 187 nM (active)
COLO 205
  GI50: 67.5 nM (active)
NCI-H23
  GI50: 49.2 nM (active)
SN12C
  GI50: 51 nM (active)
RPMI-8226
  GI50: 36.6 nM (active)
SK-MEL-2
  GI50: 196 nM (active)
SF-539
  GI50: 57.1 nM (active)
CCRF-CEM
  GI50: 18.2 nM (active)
OVCAR-8
  GI50: < 21.5 nM (active)
SK-MEL-28
  GI50: 159 nM (active)
SW-620
  GI50: 48.6 nM (active)
EKVX
  GI50: 461 nM (active)
OVCAR-5
  GI50: 162 nM (active)
KM12
  GI50: 78.5 nM (active)
XF498
  GI50: 48.6 nM (active)
T47D
  GI50: 58.5 nM (active)
KM-20L2
  GI50: 35.4 nM (active)
SNB-75
  GI50: 49.2 nM (active)
DMS-273
  GI50: 27.8 nM (active)
NCI-H460
  GI50: < 31.6 nM (active)
NCI-H522
  GI50: 57.4 nM (active)
HCT-116
  GI50: < 17.1 nM (active)
NCI-H226
  GI50: 32.7 nM (active)
Malme-3M
  GI50: 441 nM (active)
SNB-19
  GI50: 334 nM (active)
HCT-15
  GI50: 553 nM
HOP-18
  GI50: 466 nM (active)
MDA-N
  GI50: 121 nM (active)
A549
  GI50: 35.4 nM (active)
LXFL 529
  GI50: 59.4 nM (active)
HL-60
  GI50: 53.6 nM (active)
DU-145
  GI50: 174 nM (active)
U-251
  GI50: 53.5 nM (active)
IGROV-1
  GI50: 26.4 nM (active)
OVCAR-4
  GI50: 320 nM (active)
SNB-78
  GI50: 708 nM (active)
PC-3
  GI50: 95.5 nM (active)
DLD-1
  GI50: 156 nM (active)
SK-OV-3
  GI50: 200 nM (active)
TK-10
  GI50: 392 nM (active)
RXF 631
  GI50: 45.6 nM (active)
MDA-MB-231
  GI50: 197 nM (active)
OVCAR-3
  GI50: 85.7 nM (active)
HOP-92
  GI50: 843 nM (active)

## N#CCCN(CCC#N)c1ccc(C(Sc2ccccc2)C(NC(=O)c2cc([N+](=O)[O-])ccc2Cl)C(=O)Sc2ccccc2)cc1 (centres undefined)
A498
  GI50: 2150 nM (inactive)
HOP-62
  GI50: 3240 nM (inactive)
DMS-114
  GI50: 2370 nM (inactive)
SR
  GI50: 1510 nM (inactive)
SK-MEL-5
  GI50: 3270 nM (inactive)
M19-MEL
  GI50: 5360 nM (inactive)
ACHN
  GI50: 3710 nM (inactive)
LOX IMVI
  GI50: 1910 nM (inactive)
CAKI-1
  GI50: 1450 nM (inactive)
UACC-62
  GI50: 1680 nM (inactive)
K562
  GI50: 2390 nM (inactive)
HCC 2998
  GI50: 6650 nM (inactive)
SF-295
  GI50: 3370 nM (inactive)
UO-31
  GI50: 2200 nM (inactive)
SF-268
  GI50: 2350 nM (inactive)
786-0
  GI50: 1890 nM (inactive)
HT-29
  GI50: 4100 nM (inactive)
RXF 393
  GI50: 2090 nM (inactive)
M14
  GI50: 3320 nM (inactive)
COLO 205
  GI50: 2340 nM (inactive)
NCI-H23
  GI50: 5060 nM (inactive)
SN12C
  GI50: 1880 nM (inactive)
RPMI-8226
  GI50: 1770 nM (inactive)
SK-MEL-2
  GI50: 2300 nM (inactive)
SF-539
  GI50: 1800 nM (inactive)
CCRF-CEM
  GI50: 172 nM (active)
OVCAR-8
  GI50: 1960 nM (inactive)
SK-MEL-28
  GI50: 1960 nM (inactive)
SW-620
  GI50: 2190 nM (inactive)
EKVX
  GI50: 1340 nM (inactive)
OVCAR-5
  GI50: 4380 nM (inactive)
KM12
  GI50: 3530 nM (inactive)
XF498
  GI50: 8670 nM (inactive)
KM-20L2
  GI50: 2570 nM (inactive)
SNB-75
  GI50: 5410 nM (inactive)
DMS-273
  GI50: 1560 nM (inactive)
NCI-H460
  GI50: 4410 nM (inactive)
NCI-H522
  GI50: 2360 nM (inactive)
HCT-116
  GI50: 2170 nM (inactive)
NCI-H226
  GI50: 2020 nM (inactive)
Malme-3M
  GI50: 7330 nM (inactive)
SNB-19
  GI50: 3540 nM (inactive)
HCT-15
  GI50: 3450 nM
HOP-18
  GI50: 24000 nM (inactive)
A549
  GI50: 2880 nM (inactive)
LXFL 529
  GI50: 3690 nM (inactive)
HL-60
  GI50: 1400 nM (inactive)
U-251
  GI50: 1230 nM (inactive)
IGROV-1
  GI50: 1920 nM (inactive)
OVCAR-4
  GI50: 6150 nM (inactive)
SNB-78
  GI50: 4660 nM (inactive)
UACC-257
  GI50: 8070 nM (inactive)
DLD-1
  GI50: 2520 nM (inactive)
SK-OV-3
  GI50: 5420 nM (inactive)
TK-10
  GI50: 7280 nM (inactive)
RXF 631
  GI50: 2030 nM (inactive)
OVCAR-3
  GI50: 2560 nM (inactive)
MOLT-4
  GI50: 385 nM (active)
HOP-92
  GI50: 5580 nM (inactive)
